Results published in US9044463B2, “FSH receptor antagonists” (Merck Sharp & Dohme B.V., priority 2011, dated 2015).

Molecular target: T1, human FSH receptor (Homo sapiens, UniProt P23945)
T1 construct: expressed in transfected cells; host or cells: CHO (Chinese Hamster Ovary) cells, stably transfected; cotransfected with a CRE-luciferase reporter
T1 sequence (P23945 18-695): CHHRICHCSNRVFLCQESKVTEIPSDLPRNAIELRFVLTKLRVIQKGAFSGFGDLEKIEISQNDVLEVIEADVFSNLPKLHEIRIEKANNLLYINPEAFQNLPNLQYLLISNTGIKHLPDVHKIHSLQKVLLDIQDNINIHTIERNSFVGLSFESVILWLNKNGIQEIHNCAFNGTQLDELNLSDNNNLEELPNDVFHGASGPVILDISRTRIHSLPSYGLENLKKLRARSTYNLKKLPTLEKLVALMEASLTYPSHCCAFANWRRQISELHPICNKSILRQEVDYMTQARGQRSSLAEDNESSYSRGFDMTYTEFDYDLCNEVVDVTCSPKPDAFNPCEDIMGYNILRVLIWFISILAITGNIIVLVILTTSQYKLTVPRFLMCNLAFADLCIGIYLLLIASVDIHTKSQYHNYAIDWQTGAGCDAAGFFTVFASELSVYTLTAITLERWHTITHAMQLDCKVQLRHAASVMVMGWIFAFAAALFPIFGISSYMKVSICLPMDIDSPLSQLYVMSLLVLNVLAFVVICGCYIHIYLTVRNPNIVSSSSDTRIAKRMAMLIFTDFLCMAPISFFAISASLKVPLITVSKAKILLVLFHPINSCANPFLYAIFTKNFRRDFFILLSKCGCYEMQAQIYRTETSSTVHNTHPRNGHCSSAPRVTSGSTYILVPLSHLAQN
Experiment: Antagonistic activity at the human FSH receptor expressed in CHO cells (CRE-luciferase reporter)
Format: cell-based
Conditions: CHO cells stably transfected with human FSH receptor and CRE-luciferase; with 49 μM recFSH; 4 hours incubation; read-out: IC50 (inhibition of recFSH-induced luciferase stimulation)
Protocol: Antagonistic Activity of Compounds at the Human FSH Receptor Expressed in CHO Cells
Antagonistic activity of the compounds at the human FSH receptor was determined in Chinese Hamster Ovary (CHO) cells stably transfected with the human FSH receptor and cotransfected to with a cAMP responsive element (CRE)/promoter directing the expression of a firefly luciferase reporter gene. Binding of the compounds to the Gs protein-coupled FSH receptor will result in an increase of cAMP, which in turn will induce an increased transactivation of the luciferase reporter. The cells (7,500 cells/well of a 384 well plate) were incubated in Dulbecco′ minimal essential F12 modified medium (Invitrogen), supplemented with 1 μg/ml bovine insulin, 5 μg/ml human apo-transferrin, 100 U/ml penicillin G and 100 μg/ml streptomycin with the test compounds (concentration between 0.316 nM and 10.0 μM) in duplicate together with […] recFSH (which, at this concentration in the absence of test compound, induces 80% of the maximal luciferase stimulation) in a humidified atmosphere (95%) at 5-7% CO2 and 37° C. The final concentration of DMSO was 1%. After 4 hours of incubation, plates were allowed to adjust to room temperature for 1 hour. Then, SteadyLite (PerkinElmer) solution was added to the wells and cells were allowed to lyse for at least 1 hour at room temperature. Subsequently, luciferase activity was measured in a luminescence counter. The signal is expressed as counts per second (cps). The IC50 (concentration of test compound causing half-maximal (50%) inhibition of the maximally attainable inhibition of the luciferase stimulation by the compound) and efficacy of the compounds were determined using the software program MathIQ (version 2.3, ID Business Solutions Limited).

IC50 [nM]	Compound
100 to 1000	COc1cc2c(cc1OC)-c1cc(C(=O)N[C@@H](CO)Cc3c[nH]c4ccccc34)c(-c3cccc(C(N)=O)c3)cc1CC2 [Example 26, (R)-2-(3-carbamoylphenyl)-N-(1-hydroxy-3-(1H-indol-3-yl)propan-2-yl)-6,7-dimethoxy-9,10-dihydrophenanthrene-3-carboxamide]
< 100	C=CCOc1cc2c(cc1OC)-c1cc(C(=O)N[C@@H](CO)Cc3c[nH]c4ccccc34)c(-c3ccccc3F)cc1CC2 [Example 28, 7-(allyloxy)-2-(2-fluorophenyl)-N—((R)-1-hydroxy-3-(1H-indol-3-yl)propan-2-yl)-6-methoxy-9,10-dihydrophenanthrene-3-carboxamide]
< 100	C=CCOc1cc2c(cc1OC)CCc1cc(-c3ccccc3F)c(C(=O)N[C@@H](CO)Cc3c[nH]c4ccccc34)cc1-2 [Example 29, 6-(allyloxy)-2-(2-fluorophenyl)-N—((R)-1-hydroxy-3-(1H-indol-3-yl)propan-2-yl)-7-methoxy-9,10-dihydrophenanthrene-3-carboxamide]
< 100	COc1cc2c(cc1O)CCc1cc(-c3ccccc3F)c(C(=O)N[C@@H](CO)Cc3c[nH]c4ccccc34)cc1-2 [Example 30, 2-(2-fluorophenyl)-7-hydroxy-N—((R)-1-hydroxy-3-(1H-indol-3-yl)propan-2-yl)-6-methoxy-9,10-dihydrophenanthrene-3-carboxamide]
100 to 1000	COc1cc2c(cc1O)-c1cc(C(=O)N[C@@H](CO)Cc3c[nH]c4ccccc34)c(-c3ccccc3F)cc1CC2 [Example 31, 2-(2-fluorophenyl)-6-hydroxy-N—((R)-1-hydroxy-3-(1H-indol-3-yl)propan-2-yl)-7-methoxy-9,10-dihydrophenanthrene-3-carboxamide]
100 to 1000	COc1cc2c(cc1C#N)-c1cc(C(=O)N[C@@H](CO)Cc3c[nH]c4ccccc34)c(OC(C)C)cc1CC2 [Example 33, (R)-6-cyano-N-(1-hydroxy-3-(1H-indol-3-yl)propan-2-yl)-2-isopropoxy-7-methoxy-9,10-dihydrophenanthrene-3-carboxamide]
< 100	COc1cc2c(cc1OC)-c1cc(C(=O)N[C@@H](CO)Cc3c[nH]c4ccccc34)c(OC(C)C)cc1OC2 [Example 34, (R)—N-(1-hydroxy-3-(1H-indol-3-yl)propan-2-yl)-3-isopropoxy-8,9-dimethoxy-6H-benzo[c]chromene-2-carboxamide]
100 to 1000	CC(C)Oc1cc2c(cc1C(=O)N[C@@H](CO)Cc1c[nH]c3ccccc13)-c1cc3c(cc1CO2)OCO3 [Example 35, (R)—N-(1-hydroxy-3-(1H-indol-3-yl)propan-2-yl)-3-isopropoxy-8,9-(1′,3′-dioxolo)-6H-benzo[c]chromene-2-carboxamide]
< 100	COc1cc2c(cc1OC)-c1cc(C(=O)N[C@@H](CO)Cc3c[nH]c4ccccc34)c(-c3ccccc3F)cc1OC2 [Example 36, 3-(2-fluorophenyl)-N—((R)-1-hydroxy-3-(1H-indol-3-yl)propan-2-yl)-8,9-dimethoxy-6H-benzo[c]chromene-2-carboxamide]
< 100	COc1cc2c(cc1OC)-c1cc(C(=O)N[C@@H](CO)Cc3c[nH]c4ccccc34)c(-c3cccc(F)c3F)cc1OC2 [Example 37, 3-(2,3-difluorophenyl)-N—((R)-1-hydroxy-3-(1H-indol-3-yl)propan-2-yl)-8,9-dimethoxy-6H-benzo[c]chromene-2-carboxamide]
< 100	COc1cc2c(cc1OC)-c1cc(C(=O)N[C@@H](CO)Cc3c[nH]c4ccccc34)c(-c3c(C)n[nH]c3C)cc1OC2 [Example 38, 3-(3,5-dimethyl-1H-pyrazol-4-yl)-N—((R)-1-hydroxy-3-(1H-indol-3-yl)propan-2-yl)-8,9-dimethoxy-6H-benzo[c]chromene-2-carboxamide]
< 100	COc1cc2c(cc1OC)-c1cc(C(=O)N[C@@H](CO)Cc3c[nH]c4ccccc34)c(-c3sccc3C)cc1OC2 [Example 39, N—((R)-1-hydroxy-3-(1H-indol-3-yl)propan-2-yl)-8,9-dimethoxy-3-(3-methylthiophen-2-yl)-6H-benzo[c]chromene-2-carboxamide]
< 100	COc1cc2c(cc1OC)-c1cc(C(=O)N[C@@H](CO)Cc3c[nH]c4ccccc34)c(-c3ccccc3)cc1OC2 [Example 40, (R)—N-(1-hydroxy-3-(1H-indol-3-yl)propan-2-yl)-8,9-dimethoxy-3-phenyl-6H-benzo[c]chromene-2-carboxamide]
< 100	COc1cc2c(cc1OC)-c1cc(C(=O)N[C@@H](CO)Cc3c[nH]c4ccccc34)c(C=C(C)C)cc1OC2 [Example 41, (R)—N-(1-hydroxy-3-(1H-indol-3-yl)propan-2-yl)-8,9-dimethoxy-3(2-methylprop-1-enyl)-6H-benzo[c]chromene-2-carboxamide]
< 100	COc1cc2c(cc1OC)-c1cc(C(=O)N[C@@H](CO)Cc3c[nH]c4ccccc34)c(CC(C)C)cc1OC2 [Example 42, (R)—N-(1-hydroxy-3-(1H-indol-3-yl)propan-2-yl)-3-isobutyl-8,9-dimethoxy-6H-benzo[c]chromene-2-carboxamide]
< 100	COc1cc2c(cc1OC(C)C)COc1cc(-c3ccccc3F)c(C(=O)N[C@@H](CO)Cc3c[nH]c4ccccc34)cc1-2 [Example 43, 3-(2-fluorophenyl)-N—((R)-1-hydroxy-3-(1H-indol-3-yl)propan-2-yl)-8-isopropoxy-9-methoxy-6H-benzo[c]chromene-2-carboxamide]
< 100	COc1cc2c(cc1O)COc1cc(-c3ccccc3F)c(C(=O)N[C@@H](CO)Cc3c[nH]c4ccccc34)cc1-2 [Example 44, 3-(2-fluorophenyl)-8-hydroxy-N—((R)-1-hydroxy-3-(1H-indol-3-yl)propan-2-yl)-9-methoxy-6H-benzo[c]chromene-2-carboxamide]
< 100	COCCOc1cc2c(cc1OC)-c1cc(C(=O)N[C@@H](CO)Cc3c[nH]c4ccccc34)c(-c3ccccc3F)cc1OC2 [Example 45, 3-(2-fluorophenyl)-N—((R)-1-hydroxy-3-(1H-indol-3-yl)propan-2-yl)-9-methoxy-8-(2-methoxyethoxy)-6H-benzo[c]chromene-2-carboxamide]
< 100	C=CCOc1cc2c(cc1OC)-c1cc(C(=O)N[C@@H](CO)Cc3c[nH]c4ccccc34)c(-c3ccccc3F)cc1OC2 [Example 46, 8-(allyloxy)-3-(2-fluorophenyl)-N—((R)-1-hydroxy-3-(1H-indol-3-yl)propan-2-yl)-9-methoxy-6H-benzo[c]chromene-2-carboxamide]
< 100	COc1cc2c(cc1OCCO)COc1cc(-c3ccccc3F)c(C(=O)N[C@@H](CO)Cc3c[nH]c4ccccc34)cc1-2 [Example 47, 3-(2-fluorophenyl)-N—((R)-1-hydroxy-3-(1H-indol-3-yl)propan-2-yl)-8-(2-hydroxyethoxy)-9-methoxy-6H-benzo[c]chromene-2-carboxamide]
< 100	COc1cc2c(cc1OCCN(C)C)COc1cc(-c3ccccc3F)c(C(=O)N[C@@H](CO)Cc3c[nH]c4ccccc34)cc1-2 [Example 48, 8-(2-(dimethylamino)ethoxy)-3-(2-fluorophenyl)-N—((R)-1-hydroxy-3-(1H-indol-3-yl)propan-2-yl)-9-methoxy-6H-benzo[c]chromene-2-carboxamide]
< 100	COc1cc2c(cc1OCC1CC1)COc1cc(-c3ccccc3F)c(C(=O)N[C@@H](CO)Cc3c[nH]c4ccccc34)cc1-2 [Example 49, 8-(cyclopropylmethoxy)-3-(2-fluorophenyl)-N—((R)-1-hydroxy-3-(1H-indol-3-yl)propan-2-yl)-9-s methoxy-6H-benzo[c]chromene-2-carboxamide]
< 100	COc1cc2c(cc1-c1cccnc1)COc1cc(-c3ccccc3F)c(C(=O)N[C@@H](CO)Cc3c[nH]c4ccccc34)cc1-2 [Example 50, 3-(2-fluorophenyl)-N—((R)-1-hydroxy-3-(1H-indol-3-yl)propan-2-yl)-9-methoxy-8-(pyridin-3-v)-6H-benzo[c]chromene-2-carboxamide]
